Results reported in patent publication US10112941B2, “Tricyclic compounds as anticancer agents” (BRISTOL-MYERS SQUIBB COMPANY, priority 2013, dated 2018).

Molecular target: BRD4 (Homo sapiens, UniProt O60885)
Test: Time Resolved Fluorescence Resonance Energy Transfer (TR-FRET) binding assay, BRD4
Settings: one of the FRET assays described; read-out: FRET BRD4 IC50

| Compound | IC50 [nM] |
| --- | --- |
| [2H]C([2H])([2H])c1nnn(C)c1-c1cnc2c3ccc(S(C)(=O)=O)cc3n(C(c3cc(C)on3)C3CCOCC3)c2c1 (stereo not shown) [Example 330, 5-{7-Methanesulfonyl-5-[(5-methyl-1,2-oxazol-3-yl)(oxan-4-yl)methyl]-5H-pyrido[3,2-b]indol-3-yl}-4-(^2H3)methyl-1-methyl-1H-1,2,3-triazole] | < 25 |
| [2H]C([2H])([2H])c1nnn(C)c1-c1cnc2c3ccc(S(C)(=O)=O)cc3n(C(c3cc(C)on3)C3CCOCC3)c2c1 (stereo not shown) [Example 331, 5-{7-Methanesulfonyl-5-[(5-methyl-1,2-oxazol-3-yl)(oxan-4-yl)methyl]-5H-pyrido[3,2-b]indol-3-yl}-4-(^2H3)methyl-1-methyl-1H-1,2,3-triazole] | < 5 |
| Cc1nnn(C)c1-c1cnc2c3ccc(CS(C)(=O)=O)cc3n([C@H](c3ncccc3F)C3CCOCC3)c2c1 [Example 332] | < 5 |
| Cc1nnn(C)c1-c1cnc2c3ccc(CS(C)(=O)=O)cc3n([C@@H](c3ncccc3F)C3CCOCC3)c2c1 [Example 333] | < 5 |
| Cc1nnn(C)c1-c1cnc2c3ccc(CS(C)(=O)=O)cc3n([C@@H](c3ccc(Cl)cn3)C3CCOCC3)c2c1 [Example 334] | < 5 |
| Cc1nnn(C)c1-c1cnc2c3ccc(CS(C)(=O)=O)cc3n([C@H](c3cc(Cl)ccn3)C3CCOCC3)c2c1 [Example 335] | < 5 |
| COc1ccnc([C@H](C2CCOCC2)n2c3cc(CS(C)(=O)=O)ccc3c3ncc(-c4c(C)nnn4C)cc32)c1 [Example 336] | < 5 |
| Cc1ccnc([C@H](C2CCOCC2)n2c3cc(CS(C)(=O)=O)ccc3c3ncc(-c4c(C)nnn4C)cc32)c1 [Example 337] | < 5 |
| Cc1ccc([C@H](C2CCOCC2)n2c3cc(CS(C)(=O)=O)ccc3c3ncc(-c4c(C)nnn4C)cc32)nc1 [Example 338] | < 5 |
| Cc1nnn(C)c1-c1cnc2c3ccc(CS(C)(=O)=O)cc3n([C@H](c3ncccc3Cl)C3CCOCC3)c2c1 [Example 339] | < 5 |
| Cc1nnn(C)c1-c1cnc2c3ccc(CS(C)(=O)=O)cc3n([C@@H](c3ncccc3Cl)C3CCOCC3)c2c1 [Example 340] | < 5 |
| [2H]C([2H])([2H])c1onc(C)c1-c1cnc2c3ccc(C(C)(C)O)cc3n(C([2H])(c3ccncc3F)C3CCOCC3)c2c1 (stereo not shown) [Example 343, 2-{5-[(3-Fluoropyridin-4-yl)(oxan-4-yl)(^2H)methyl]-3-[5-(^2H3)methyl-3-methyl-1,2-oxazol-4-yl]-5H-pyrido[3,2-b]indol-7-yl}propan-2-ol] | < 5 |
| [2H]C([2H])([2H])c1onc(C)c1-c1cnc2c3ccc(C(C)(C)O)cc3n(C([2H])(c3ccncc3F)C3CCOCC3)c2c1 (stereo not shown) [Example 344, 2-{5-[(3-Fluoropyridin-4-yl)(oxan-4-yl)(^2H)methyl]-3-[5-(^2H3)methyl-3-methyl-1,2-oxazol-4-yl]-5H-pyrido[3,2-b]indol-7-yl}propan-2-ol] | < 5 |
| [2H]C([2H])([2H])c1nnn(C)c1-c1cnc2c3c(OC)cc(C(C)(C)O)cc3n(C(c3ccncc3F)C3CCOCC3)c2c1 (stereo not shown) [Example 347, 2-{5-[(3-Fluoropyridin-4-yl)(oxan-4-yl)methyl]-9-methoxy-3-[4-(^2H3)methyl-1-methyl-1H-1,2,3-triazol-5-yl]-5H-pyrido[3,2-b]indol-7-yl}propan-2-ol] | < 5 |
| [2H]C([2H])([2H])c1nnn(C)c1-c1cnc2c3c(OC)cc(C(C)(C)O)cc3n(C(c3ccncc3F)C3CCOCC3)c2c1 (stereo not shown) [Example 348, 2-{5-[(3-Fluoropyridin-4-yl)(oxan-4-yl)methyl]-9-methoxy-3-[4-(^2H3)methyl-1-methyl-1H-1,2,3-triazol-5-yl]-5H-pyrido[3,2-b]indol-7-yl}propan-2-ol] | < 5 |
| Cc1nnn(C)c1-c1cnc2c3ccc(C(C)(C)F)cc3n([C@H](c3ccccc3)C3CCOCC3)c2c1 [Example 351, 5-[7-(2-Fluoropropan-2-yl)-5-[(S)-oxan-4-yl(phenyl)methyl]-5H-pyrido[3,2-b]indol-3-yl]-1,4-dimethyl-1H-1,2,3-triazole] | < 5 |
| Cc1nnn(C)c1-c1cnc2c3ccc(C(C)(C)F)c(F)c3n([C@H](c3ccccc3)C3CCOCC3)c2c1 [Example 352, 5-[6-Fluoro-7-(2-fluoropropan-2-yl)-5-[(S)-oxan-4-yl(phenyl)methyl]-5H-pyrido[3,2-b]indol-3-yl]-1,4-dimethyl-1H-1,2,3-triazole] | < 25 |

| Compound | IC50 [nM] |
| --- | --- |
| COc1cc2c3ncc(-c4c(C)nnn4C)cc3n([C@H](c3ccc(F)cc3)C3CCOCC3)c2cc1C(C)(C)O [Example 353, 2-[3-(Dimethyl-1H-1,2,3-triazol-5-yl)-5-[(S)-(4-fluorophenyl)(oxan-4-yl)methyl]-8-methoxy-5H-pyrido[3,2-b]indol-7-yl]propan-2-ol] | < 5 |
| COc1cc2c3ncc(-c4c(C)nnn4C)cc3n([C@H](c3ccccc3)C3CCOCC3)c2cc1C(C)(C)O [Example 354, 2-[3-(Dimethyl-1H-1,2,3-triazol-5-yl)-8-methoxy-5-[(S)-oxan-4-yl(phenyl)methyl]-5H-pyrido[3,2-b]indol-7-yl]propan-2-ol] | < 5 |
| COc1c(C(C)(C)O)ccc2c3ncc(-c4c(C)nnn4C)cc3n([C@H](c3ccccc3)C3CCOCC3)c12 [Example 355, 2-[3-(Dimethyl-1H-1,2,3-triazol-5-yl)-6-methoxy-5-[(S)-oxan-4-yl(phenyl)methyl]-5H-pyrido[3,2-b]indol-7-yl]propan-2-ol] | < 5 |
| C=C(C)c1ccc2c3ncc(-c4c(C)nnn4C)cc3n([C@H](c3ccccc3)C3CCOCC3)c2c1CO [Example 356, [3-(Dimethyl-1H-1,2,3-triazol-5-yl)-5-[(S)-oxan-4-yl(phenyl)methyl]-7-(prop-1-en-2-yl)-5H-pyrido[3,2-b]indol-6-yl]methanol] | < 5 |
| Cc1nnn(C)c1-c1cnc2c3ccc(NC(=O)OCCC(F)(F)F)cc3n([C@H](c3ccccc3)C3CCOCC3)c2c1 [Example 364, 3,3,3-Trifluoropropyl N-[3-(dimethyl-1H-1,2,3-triazol-5-yl)-5-[(S)-oxan-4-yl(phenyl)methyl]-5H-pyrido[3,2-b]indol-7-yl]carbamate] | < 5 |
| COC(=O)Nc1ccc2c3ncc(-c4c(C)nnn4C)cc3n([C@H](c3ccccc3)C3CCOCC3)c2c1 [Example 365, Methyl N-[3-(dimethyl-1H-1,2,3-triazol-5-yl)-5-[(S)-oxan-4-yl(phenyl)methyl]-5H-pyrido[3,2-b]indol-7-yl]carbamate] | < 5 |
| CCOC(=O)Nc1ccc2c3ncc(-c4c(C)nnn4C)cc3n([C@H](c3ccccc3)C3CCOCC3)c2c1 [Example 366, Ethyl N-[3-(dimethyl-1H-1,2,3-triazol-5-yl)-5-[(S)-oxan-4-yl(phenyl)methyl]-5H-pyrido[3,2-b]indol-7-yl]carbamate] | < 5 |
| Cc1nnn(C)c1-c1cnc2c3ccc(NC(=O)OC(C)C)cc3n([C@H](c3ccccc3)C3CCOCC3)c2c1 [Example 367, Propan-2-yl N-[3-(dimethyl-1H-1,2,3-triazol-5-yl)-5-[(S)-oxan-4-yl(phenyl)methyl]-5H-pyrido[3,2-b]indol-7-yl]carbamate] | < 5 |
| Cc1nnn(C)c1-c1cnc2c3c(F)cc(C(C)(C)O)cc3n([C@H](c3ccccc3)C3CCOCC3)c2c1 [Example 369, 2-[3-(Dimethyl-1H-1,2,3-triazol-5-yl)-9-fluoro-5-[(S)-oxan-4-yl(phenyl)methyl]-5H-pyrido[3,2-b]indol-7-yl]propan-2-ol] | < 5 |
| Cc1noc(C)c1-c1cnc2c3c(F)cc(C(C)(C)O)cc3n([C@H](c3ccccc3)C3CCOCC3)c2c1 [Example 370, 2-[3-(Dimethyl-1,2-oxazol-4-yl)-9-fluoro-5-[(S)-oxan-4-yl(phenyl)methyl]-5H-pyrido[3,2-b]indol-7-yl]propan-2-ol] | < 5 |
| Cc1nnn(C)c1-c1cnc2c3cc(S(C)(=O)=O)ccc3n([C@H](c3ccccc3)C3CCOCC3)c2c1 [Example 375, 5-{8-Methanesulfonyl-5-[(S)-oxan-4-yl(phenyl)methyl]-5H-pyrido[3,2-b]indol-3-yl}-1,4-dimethyl-1H-1,2,3-triazole] | < 5 |
| Cc1nnn(C)c1-c1cnc2c3cccc(S(C)(=O)=O)c3n([C@H](c3ccccc3)C3CCOCC3)c2c1 [Example 376, 5-{6-Methanesulfonyl-5-[(S)-oxan-4-yl(phenyl)methyl]-5H-pyrido[3,2-b]indol-3-yl}-1,4-dimethyl-1H-1,2,3-triazole] | < 5 |
| Cc1nnn(C)c1-c1cnc2c3cccc(S(C)(=O)=O)c3n([C@@H](CCC(F)(F)F)c3ccccc3)c2c1 [Example 377, 5-{6-Methanesulfonyl-5-[(1S)-4,4,4-trifluoro-1-phenylbutyl]-5H-pyrido[3,2-b]indol-3-yl}-1,4-dimethyl-1H-1,2,3-triazole] | < 5 |
| [2H]C([2H])([2H])Oc1nnn(C)c1-c1cnc2c3ccc(C(C)(C)O)cc3n([C@H](c3ccccc3)C3CCOCC3)c2c1 [Example 378, 2-{3-[4-(^2H3)Methoxy-1-methyl-1H-1,2,3-triazol-5-yl]-5-[(S)-oxan-4-yl(phenyl)methyl]-5H-pyrido[3,2-b]indol-7-yl}propan-2-ol] | < 5 |
| COc1nnn(C)c1-c1cnc2c3ccc(C(C)(C)O)cc3n([C@H](c3ccccc3)C3CCOCC3)c2c1 [Example 379, 2-[3-(4-Methoxy-1-Methyl-1H-1,2,3-triazol-5-yl)-5-[(S)-oxan-4-yl(phenyl)methyl]-5H-pyrido[3,2-b]indol-7-yl]propan-2-ol] | < 5 |
| [2H]C([2H])([2H])Oc1nnn(C([2H])([2H])[2H])c1-c1cnc2c3ccc(C(C)(C)O)cc3n([C@H](c3ccccc3)C3CCOCC3)c2c1 [Example 380, 2-{3-[4-(^2H3)Methoxy-1-(^2H3)methyl-1H-1,2,3-triazol-5-yl]-5-[(S)-oxan-4-yl(phenyl)methyl]-5H-pyrido[3,2-b]indol-7-yl}propan-2-ol] | < 5 |
| [2H]C([2H])([2H])n1nnc(OC)c1-c1cnc2c3ccc(C(C)(C)O)cc3n([C@H](c3ccccc3)C3CCOCC3)c2c1 [Example 381, 2-{3-[4-Methoxy-1-(^2H3)methyl-1H-1,2,3-triazol-5-yl]-5-[(S)-oxan-4-yl(phenyl)methyl]-5H-pyrido[3,2-b]indol-7-yl}propan-2-ol] | < 5 |
